Source: the supplement of paper PMC11061612

How the values were obtained:
Test in all cases: combination Emax (second highest fraction inhibited in the dose matrix, 72 h); higher = more inhibition; extreme values may be limits of the assay
[1] = tested on: OAW-28 (Ovarian Carcinoma)
Summary of the method: (§1)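 Bliss excess equals the observed combination effect minus the expected value EA + EB − EA·EB, where EA and EB are the effects of each agent alone. Combination Emax is the second-highest inhibition within the matrix. Inhibition was scaled from CellTiter-Glo 2.0 luminescence, with 0 set by vehicle wells and 1 by blank wells, after 72 hours of two-drug dosing of cells plated in 1536-well plates.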

[2] = tested on: SNU-407 (Colorectal Carcinoma)
Summary of the method: as §1

[3] = tested on: PL4 (Pancreatic Carcinoma)
Summary of the method: as §1

[4] = tested on: LCLC-103H (Non-Small Cell Lung Carcinoma)
Summary of the method: as §1

[5] = tested on: PA-TU-8988T (Pancreatic Carcinoma)
Summary of the method: as §1

[6] = tested on: KALS-1 (Glioblastoma)
Summary of the method: as §1

[7] = tested on: P32-ISH (Burkitt's Lymphoma)
Summary of the method: as §1

[8] = tested on: P30-OHK (B-Lymphoblastic Leukemia)
Summary of the method: as §1

[9] = tested on: COR-L88 (Small Cell Lung Carcinoma)
Summary of the method: as §1

[10] = tested on: NAMALWA (Burkitt's Lymphoma)
Summary of the method: as §1

[11] = tested on: SUP-M2 (T-Cell Non-Hodgkin's Lymphoma)
Summary of the method: as §1

[12] = tested on: SK-N-SH (Neuroblastoma)
Summary of the method: as §1

[13] = tested on: GAK (Melanoma)
Summary of the method: as §1

[14] = tested on: T47D (Breast Carcinoma)
Summary of the method: as §1

[15] = tested on: DBTRG-05MG (Glioblastoma)
Summary of the method: as §1

[16] = tested on: MONO-MAC-6 (Acute Myeloid Leukemia)
Summary of the method: as §1

[17] = tested on: MOLT-13 (T-Lymphoblastic Leukemia)
Summary of the method: as §1

[18] = tested on: T84 (Colorectal Carcinoma)
Summary of the method: as §1

[19] = tested on: NCI-H1876 (Small Cell Lung Carcinoma)
Summary of the method: as §1

[20] = tested on: MOLP-8 (Plasma Cell Myeloma)
Summary of the method: as §1

Structure (SMILES)	combination Emax [1]	combination Emax [2]	combination Emax [3]	combination Emax [4]	combination Emax [5]	combination Emax [6]	combination Emax [7]	combination Emax [8]	combination Emax [9]	combination Emax [10]	combination Emax [11]	combination Emax [12]	combination Emax [13]	combination Emax [14]	combination Emax [15]	combination Emax [16]	combination Emax [17]	combination Emax [18]	combination Emax [19]	combination Emax [20]
C=CCn1c(=O)c2cnc(Nc3ccc(N4CCN(C)CC4)cc3)nc2n1-c1cccc(C(C)(C)O)n1 [AZD1775] + C[C@@H]1COCCN1C2=NC(=NC(=C2)C3(CC3)[S@](=N)(=O)C)C4=C5C=CNC5=NC=C4 [AZD6738] (first compound max 1 µM, partner max 10 µM)	0.522	0.758	0.738	0.752	0.833	0.923	1	0.943	0.822	0.961	1	0.953	0.821	0.412	0.332	1	1	0.817	0.987	0.854
NC1(C(=O)N[C@@H](CCO)c2ccc(Cl)cc2)CCN(c2ncnc3[nH]ccc23)CC1 [Capivasertib] + CC(C)n1c(=O)n(C)c2cnc3cc(F)c(-c4ccc(OCCCN5CCCCC5)nc4)cc3c21 [AZD1390] (first compound max 10 µM, 7x7, partner max 0.3 µM)	0.119	0.503	0.24	0.267	0.278	0.41	0.557	0.176	0.0851	0.44	0.19	0.349	0.219	0.37	0.243	0.594	0.132	0.367	0.172	0.452
COc1nnc2ccc(N3CCC(c4ccc(OCCN5CCN(C)C(=O)[C@H]5C)cc4)CC3)nn12 [AZD5153] + CCN(CCO)CCCOc1ccc2c(Nc3cc(CC(=O)Nc4cccc(F)c4)[nH]n3)ncnc2c1 [AZD2811] (first compound max 1 µM, 7x7, partner max 1 µM)	0.431	0.866	0.53	0.511	0.695	0.606	0.873	1	0.237	0.748	0.994	0.532	0.44	0.494	0.333	0.995	1	0.202	0.708	0.933
NC1(C(=O)N[C@@H](CCO)c2ccc(Cl)cc2)CCN(c2ncnc3[nH]ccc23)CC1 [Capivasertib] + Cn1cnc2c(F)c(Nc3ccc(Br)cc3Cl)c(C(=O)NOCCO)cc21 [Selumetinib] (first compound max 10 µM, 7x7, partner max 10 µM)	0.268	0.767	0.726	0.389	0.689	0.61	0.489	0.186	0.257	0.387	0.507	0.333	0.757	0.42	0.431	0.847	0.555	0.539	0.239	0.715
Cn1cnc2c(F)c(Nc3ccc(Br)cc3Cl)c(C(=O)NOCCO)cc21 [Selumetinib] + C[C@@H]1COCCN1C2=NC(=NC(=C2)C3(CC3)[S@](=N)(=O)C)C4=C5C=CNC5=NC=C4 [AZD6738] (first compound max 10 µM, 7x7, partner max 10 µM)	0.598	0.758	0.798	0.324	0.466	0.681	0.918	0.889	0.494	0.918	1	0.769	0.667	0.158	0.358	0.931	1	0.667	0.895	0.832
CC1(C)CCC(CN2CCN(c3ccc(C(=O)NS(=O)(=O)c4ccc(NCC5CCOCC5)c([N+](=O)[O-])c4)c(Oc4cnc5[nH]ccc5c4)c3)CC2)=C(c2ccc(Cl)cc2)C1 [Venetoclax] + C1CN(CCC1(C(=O)N[C@@H](CCO)C2=CC=C(C=C2)Cl)N)C3=NC=NC4=C3C=CN4 [Capivasertib] (first compound max 1 µM, 7x7, partner max 3 µM)	0.134	0.388	0.197	0.238	0.219	0.714	0.306	0.678	0.557	0.534	0.248	0.394	0.152	0.373	0.209	0.704	0.566	0.168	0.259	0.385
COc1cccc(OCCCN)c1-c1cc(Nc2cnc(C#N)cn2)n[nH]1 [Prexasertib] + C[C@@H]1COCCN1C2=NC(=NC(=C2)C3(CC3)[S@](=N)(=O)C)C4=C5C=CNC5=NC=C4 [AZD6738] (first compound max 1 µM, 7x7, partner max 10 µM)	0.546	0.757	0.809	0.738	0.46	0.899	1	0.981	0.833	0.986	1	0.901	0.753	0.374	0.281	0.993	1	0.815	0.981	0.891
